US8314255B2, “Use of phthalimide and/or sulphonamide derivatives in the treatment of diseases which require reducing the TNF- α levels and an exogenous source of nitric oxide, phthalimide derivatives, sulphonamide derivatives, and a method for obtaining a sulphonamide derivative” (priority 2007, dated 2012)

Key:
[1] = test system: leukocyte infiltration, peritonitis induced by thioglycolate; test: Peritonitis assay induced by 3% thioglycolate; assay type: in vivo; details: 300 μMol/Kg orally, mouse, 3% thioglycolate i.p., 4 h
Description: In a second assay, the number of total leukocytes (10^6/mL) was evaluated in order to evaluate the ability to inhibit their infiltration in the inflammatory process.
The mice were treated with the substances being analyzed or carrier and after 1 h of oral administration, they were simultaneously subjected to the peritonitis assay, by administering intraperitoneally 1 ml of a 3% thioglycolate solution. 4 h after the administration of thioglycolate, the peritoneal cavity was washed with 3 ml of a HANKS solution (Balanced salt solution, free of Ca^2+ and Mg^2+). Next, the peritoneal wash was analyzed and the total counting of white blood cells was made in a Newbauer's chamber under an optical microscope with a 40× objective.

[2] = test system: Salmonella typhimurium TA100; test: AMES test, mutagenic evaluation in Salmonella typhimurium TA100 strain with/without metabolic activation (S9); assay type: cell-based
Description: (§1) The procedure was firstly developed by (MARON, D. M. and AMES, B. N. Mut. Res. v. 113, pp. 173-215, 1983)
(§2) For this assay, Salmonella typhimurium TA100 and TA102 strains from the mutagenicity laboratory of the “Faculdade de Ciências Farmacêuticas—UNESP Araraquara” were used. Such strains have the following characteristics: (AMES, 1983)
(§3) The positive controls are mutagenic compounds specific for each strain and test condition, with 25 μL/plate of sodium azide (1.25 μg/plate) and 100 μL of mitomycin (0.5 μg/plate) being the controls for TA100 and TA102, respectively, in the absence of metabolic activation. For assays with metabolic activation, the positive control for TA100 is 50 μL 2-antramine (1.25 μg/plate) and for TA102 it is 50 μL 2-aminofluorene (1.25 μg/plate).
(§4) The preincubation method was used.
(§5) In laminar flow, Salmonella typhimurium (TA100 and TA 102) strains were inoculated individually with a platinum loop, in the respective nutrient broths and maintained at 37° C., under constant stirring (160 rpm) during 14 hours, in order to achieve a density of 1 to 2×10^9 bacteria/mL.
(§6) Different concentrations of the compounds were added into 100 μL of 0.2M phosphate buffer pH 7.4 (or 500 μL of the mixture S9 in metabolic activation assays) and incubated for 20-30 minutes at 37° C. Solutions containing the compounds had DMSO as the solvent. Thereafter, 2 mL of top agar supplemented with traces of histidine and biotin was added, homogenized and plated in glycosylated minimum medium. After solidification of the top agar, the plates were incubated for 48 hours at a 37° C. Then, the counting of the number of revertant colonies per plate was performed. All tested concentrations, positive and negative controls were run in triplicate.
(§7) After 48 hours, the revertant colonies were counted manually, and the protoCOL Colony Counter Version 3.15.630 (1998-2001) SYNBIOSIS LTD system was used for the positive control.
(§8) The final data obtained from the assay was analyzed using the statistical software Salanal (Salmonella Assay Analysis) version 1.0 from the Research Triangle Institute, RTP, North Carolina, USA. Such software allows the dose-response effect to be evaluated by means of analysis of variance (ANOVA-test F) computations between the measurement of the number of revertants at the different tested concentrations (doses) and the negative control, followed by a linear regression. The software model chosen for analyzing the data was Bernstein's (BERNSTEIN, L. et al. Mutat. Res. v. 97, p. 267-281, 1982). The slope of the straight line from the linear portion of the dose-response curve is also provided by this software and corresponds to the number of revertants induced per measurement unit of the analyzed sample.
(§9) From the results, the mutagenicity ratio (MR) was computed for each analyzed dose from each compound. MR is given by the following equation:
(§10) MR=average number of revertants per test plate (spontaneous+induced revertants) […] average number of revertants per plate of the negative control (spontaneous revertants)
(§11) The spontaneous growing means that the number of revertants which developed on the plate, regardless of being induced or not, wherein values higher or equal to 2 are considered as a positive response (VALENT, G. V. et al. Env. Toxicol. Water Quality. v. 8, p. 371-381, 1993).
(§12) The mutagenicity test with metabolic activation system was performed with a microsomal fraction S9 (S9 mix) prepared from a liver homogenizate from Sprague Dawley rats, previously treated with Aroclor 1254, acquired in the freeze-dried form.
(§13) The procedure for this assay is the same, however, instead of the buffer, 500 μL of the S9 mixture should be added.
(§14) The S9 mixture has a viability of 4 hours from preparation when put on ice. The plates are then incubated for 48 hours at 37° C. After the required time has elapsed, the counting of the revertant colonies was carried out. All tested concentrations, positive and negative controls were run in triplicate.

[3] = test system: Salmonella typhimurium TA102; test: AMES test, mutagenic evaluation in Salmonella typhimurium TA102 strain with/without metabolic activation (S9); assay type: cell-based
Description: as §1, §2, §3, §4, §5, §6, §7, §8, §9, §10, §11, §12, §13, §14

gamma-globin mRNA = details: 48 hours, data in the literature; cited from earlier work

Structure (SMILES): O=C1c2ccccc2C(=O)N1c1cccc(CO[N+](=O)[O-])c1 [Compound IC, 3-(1,3-dioxo-1,3-dihydro-2H-isoindol-2-yl)benzyl nitrate]
- Cell Number avg (×106), total leukocytes [1]: 3.2 ×106
- Inhibition % (leukocyte infiltrate) [1]: 42.85%
- mutagenicity ratio (MR) ([2]; TA 100, +S9, 0.224 μmol/plate): 1.27
- number of revertants per plate ([2]; TA 100, +S9, 0.224 μmol/plate): 165 ± 13.2 revertants/plate
- mutagenicity ratio (MR) ([2]; TA 100, +S9, 0.488 μmol/plate): 1.18
- number of revertants per plate ([2]; TA 100, +S9, 0.488 μmol/plate): 153 ± 13.1 revertants/plate
- mutagenicity ratio (MR) ([2]; TA 100, +S9, 0.896 μmol/plate): 1.12
- number of revertants per plate ([2]; TA 100, +S9, 0.896 μmol/plate): 146 ± 5 revertants/plate
- mutagenicity ratio (MR) ([2]; TA 100, +S9, 1.8 μmol/plate): 1.26
- number of revertants per plate ([2]; TA 100, +S9, 1.8 μmol/plate): 163 ± 22.5 revertants/plate
- mutagenicity ratio (MR) ([2]; TA 100, +S9, 3.58 μmol/plate): 1.22
- number of revertants per plate ([2]; TA 100, +S9, 3.58 μmol/plate): 158.3 ± 9.3 revertants/plate
- mutagenicity ratio (MR) ([2]; TA 100, −S9, 0.224 μmol/plate): 1.21
- number of revertants per plate ([2]; TA 100, −S9, 0.224 μmol/plate): 216.7 ± 10.2 revertants/plate
- mutagenicity ratio (MR) ([2]; TA 100, −S9, 0.488 μmol/plate): 1.25
- number of revertants per plate ([2]; TA 100, −S9, 0.488 μmol/plate): 224.5 ± 24.6 revertants/plate
- mutagenicity ratio (MR) ([2]; TA 100, −S9, 0.896 μmol/plate): 1.48
- number of revertants per plate ([2]; TA 100, −S9, 0.896 μmol/plate): 266.3 ± 8.4 revertants/plate
- mutagenicity ratio (MR) ([2]; TA 100, −S9, 1.8 μmol/plate): 1.34
- number of revertants per plate ([2]; TA 100, −S9, 1.8 μmol/plate): 239.7 ± 11.3 revertants/plate
- mutagenicity ratio (MR) ([2]; TA 100, −S9, 3.58 μmol/plate): 1.8
- number of revertants per plate ([2]; TA 100, −S9, 3.58 μmol/plate): 323.7 ± 10.2 revertants/plate
- mutagenicity (AMES test, overall) ([2]; TA100 and TA102, with and without S9, at the concentrations used): did not show mutagenicity
- mutagenicity ratio (MR) ([3]; TA 102, +S9, 0.224 μmol/plate): 0.73
- number of revertants per plate ([3]; TA 102, +S9, 0.224 μmol/plate): 272 ± 26 revertants/plate
- mutagenicity ratio (MR) ([3]; TA 102, +S9, 0.488 μmol/plate): 1.01
- number of revertants per plate ([3]; TA 102, +S9, 0.488 μmol/plate): 378 ± 6.1 revertants/plate
- mutagenicity ratio (MR) ([3]; TA 102, +S9, 0.896 μmol/plate): 1.09
- number of revertants per plate ([3]; TA 102, +S9, 0.896 μmol/plate): 405 ± 11 revertants/plate
- mutagenicity ratio (MR) ([3]; TA 102, +S9, 1.8 μmol/plate): 1.07
- number of revertants per plate ([3]; TA 102, +S9, 1.8 μmol/plate): 399.3 ± 40 revertants/plate
- mutagenicity ratio (MR) ([3]; TA 102, +S9, 3.58 μmol/plate): 1.15
- number of revertants per plate ([3]; TA 102, +S9, 3.58 μmol/plate): 431 ± 17.9 revertants/plate
- mutagenicity ratio (MR) ([3]; TA 102, −S9, 0.224 μmol/plate): 1.10
- number of revertants per plate ([3]; TA 102, −S9, 0.224 μmol/plate): 281 ± 25 revertants/plate
- mutagenicity ratio (MR) ([3]; TA 102, −S9, 0.488 μmol/plate): 1.12
- number of revertants per plate ([3]; TA 102, −S9, 0.488 μmol/plate): 286 ± 4.2 revertants/plate
- mutagenicity ratio (MR) ([3]; TA 102, −S9, 0.896 μmol/plate): 1.19
- number of revertants per plate ([3]; TA 102, −S9, 0.896 μmol/plate): 303 ± 9.2 revertants/plate
- mutagenicity ratio (MR) ([3]; TA 102, −S9, 1.8 μmol/plate): 1.55
- number of revertants per plate ([3]; TA 102, −S9, 1.8 μmol/plate): 395.7 ± 9 revertants/plate
- mutagenicity ratio (MR) ([3]; TA 102, −S9, 3.58 μmol/plate): 1.52
- number of revertants per plate ([3]; TA 102, −S9, 3.58 μmol/plate): 387 ± 9.7 revertants/plate

Structure (SMILES): NC(=O)NO [HU, Hydroxyurea]
- concentration producing comparable activity on gamma-globin expression (gamma-globin mRNA): 10 µM
